Measured values: ChEMBL document CHEMBL1201862, “PubChem BioAssay data set” (2004)
Activity calls are given as the source filed them.

Tests used:
[1] = microbe, parasite or virus in culture; format: functional; settings: Mycobacterium tuberculosis
[2] = P. falciparum Dd2 growth inhibitors, dose response, SYBR Green, cherry-picked samples (AID 1159567); format: functional, cell-based
[3] = molecular target: T1, Carboxy-terminal domain RNA polymerase II polypeptide A small phosphatase 1 (Homo sapiens, UniProt Q9GZU7); assay: inhibitors of CTDSP1, concentration-response testing, biochemical assay, absorbance-based, actives from ultra-high-throughput screening (AID 540297); format: functional
T1 sequence (Q9GZU7 whole entry): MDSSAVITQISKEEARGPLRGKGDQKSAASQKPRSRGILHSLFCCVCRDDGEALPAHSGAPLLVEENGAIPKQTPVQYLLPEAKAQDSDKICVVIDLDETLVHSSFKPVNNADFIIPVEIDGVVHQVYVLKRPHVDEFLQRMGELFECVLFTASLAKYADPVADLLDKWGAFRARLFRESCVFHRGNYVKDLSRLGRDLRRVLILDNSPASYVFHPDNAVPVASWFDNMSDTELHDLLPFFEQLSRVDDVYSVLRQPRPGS

P388/ADR = assay: cells; format: functional; settings: Mus musculus
SN12K1 = assay: cells; format: functional; settings: Homo sapiens
Cytochrome P450 1A2 = molecular target: T2, Cytochrome P450 1A2 (Homo sapiens, UniProt P05177);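 note: PubChem cytochrome P450 panel assay, CYP1A2 panel member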
T2 sequence (P05177 whole entry): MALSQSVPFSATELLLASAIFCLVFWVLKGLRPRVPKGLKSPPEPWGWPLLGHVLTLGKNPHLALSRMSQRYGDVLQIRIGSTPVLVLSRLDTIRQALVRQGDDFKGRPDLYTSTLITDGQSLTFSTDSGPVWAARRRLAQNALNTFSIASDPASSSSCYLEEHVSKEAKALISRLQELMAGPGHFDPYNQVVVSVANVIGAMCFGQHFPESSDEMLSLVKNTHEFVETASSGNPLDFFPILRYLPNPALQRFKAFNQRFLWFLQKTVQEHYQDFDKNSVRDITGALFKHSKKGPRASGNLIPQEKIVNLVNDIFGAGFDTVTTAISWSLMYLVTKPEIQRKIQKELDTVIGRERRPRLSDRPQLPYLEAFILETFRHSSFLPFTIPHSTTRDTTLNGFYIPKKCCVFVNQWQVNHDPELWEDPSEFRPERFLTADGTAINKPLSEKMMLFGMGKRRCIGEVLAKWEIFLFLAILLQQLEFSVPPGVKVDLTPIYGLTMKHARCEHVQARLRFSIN

[4] = growth suppression of PTEN-null colon cells, dose response, cell-based, HCT116 PTEN knockout (AID 1047); format: functional;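 note: HCT116 colon tumor cells with PTEN knocked out; cells exposed to compound for 60 hours before readout; potency for loss of cell viability measured by luminescence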
[5] = growth suppression of beta-catenin-knockout colon cells, dose response, cell-based, HCT116, human colon tumor (AID 1045); format: functional;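 note: HCT116 colon tumor cells with beta catenin knocked out; cells exposed to compound for 60 hours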
[6] = Luminescence Cell-Based Dose Retest to Confirm Inhibitors of Cancer Stem Cells. [Related pubchem assays (depositor defined):AID2717, AID2721]; format: functional; settings: Homo sapiens
[7] = molecular target: Luciferin 4-monooxygenase (Photinus pyralis, UniProt P08659); assay: firefly luciferase enzyme inhibitors, dose response, biochemical, luminescence (AID 1891)
[8] = Luminescence Cell-Based Dose Confirmation HTS to Identify Inhibitors of Platelet Dense Granule Release. [Related pubchem assays: 1663 (Primary HTS), 1678 (Summary of Project)]; format: functional
cells [9] = format: functional
[10] = A549 cell cytotoxicity, dose response, cytotoxicity control, plate reader, cherry-pick, antagonist series (AID 743412); format: functional, cell-based
[11] = LGR2 antagonists, dose response, cell-based, HEK293, CRE-luciferase reporter, cherry pick, set 2 (AID 743343); format: functional;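 note: transfected cells were stimulated with diluted bursicon conditioned medium after compound addition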
[12] = MC4R antagonists, dose response, counter-screen for LGR2 antagonist project, cell-based, plate reader, cherry pick (AID 743444); format: functional;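 note: transfected HEK 293 cells stimulated with alpha-MSH peptide; potency of inhibitors of the alpha-MSH evoked signal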
[13] = inhibitors of clade B AD8 Env fusion, dose response, cell-based, cherry-pick (AID 652062); format: functional;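 note: luciferase signal from cell-cell fusion driven by HIV-1 clade B AD8 Env; potency is for inhibitors of fusion seen as a drop in luminescence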
Cytochrome P450 2C9 = Cytochrome P450 2C9 (Homo sapiens, UniProt P11712)
cells [14] = format: functional, cell-based
cells [15] = format: functional, cell-based; remark: listed apart in the source
Paired box protein Pax-8 = Paired box protein Pax-8 (Homo sapiens, UniProt Q06710); assay: inhibitors of PAX8-driven TPO luciferase reporter, dose response, RMG-I cells, cherry-pick (AID 687027); format: functional, cell-based;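 note: luciferase reporter driven by Pax8 target thyroperoxidase promoter measured by SteadyGlo luminescence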
[16] = inhibitors of firefly luciferase expression or activity, dose response, H4 neuroglioma cells, luminescence (AID 1990); format: functional, cell-based
[17] = Luminescence Cell-Based Dose Response HTS to Identify Inhibitors of 5'UTR Stem-Loop Driven Prion Protein mRNA Translation in H4 Neuroglioblastoma Cells. [Related pubchem assays: 1827 (Project Summary), 1813 (Primary HTS)]; format: functional
[18] = inhibitors of SNCA 5'UTR-driven reporter translation, confirmation, H4 neuroglioma cells, luminescence (AID 1988); format: functional, cell-based

Chain of Luciferin 4-monooxygenase (P08659 whole entry): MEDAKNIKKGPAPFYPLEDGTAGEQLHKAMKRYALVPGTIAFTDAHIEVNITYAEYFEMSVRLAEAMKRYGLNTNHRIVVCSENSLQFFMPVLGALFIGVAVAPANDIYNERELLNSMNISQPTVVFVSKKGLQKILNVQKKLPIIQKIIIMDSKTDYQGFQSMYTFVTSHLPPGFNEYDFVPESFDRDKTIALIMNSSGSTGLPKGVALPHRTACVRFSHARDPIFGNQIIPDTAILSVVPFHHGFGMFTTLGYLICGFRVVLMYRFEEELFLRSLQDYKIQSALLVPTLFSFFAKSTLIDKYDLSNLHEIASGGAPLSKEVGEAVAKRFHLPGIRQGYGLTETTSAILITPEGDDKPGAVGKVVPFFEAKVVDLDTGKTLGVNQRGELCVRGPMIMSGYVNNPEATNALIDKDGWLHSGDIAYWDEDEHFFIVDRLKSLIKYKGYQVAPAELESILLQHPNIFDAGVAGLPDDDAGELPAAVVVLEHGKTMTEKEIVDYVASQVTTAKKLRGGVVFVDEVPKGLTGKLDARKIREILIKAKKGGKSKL
Chain of Cytochrome P450 2C9 (P11712 whole entry): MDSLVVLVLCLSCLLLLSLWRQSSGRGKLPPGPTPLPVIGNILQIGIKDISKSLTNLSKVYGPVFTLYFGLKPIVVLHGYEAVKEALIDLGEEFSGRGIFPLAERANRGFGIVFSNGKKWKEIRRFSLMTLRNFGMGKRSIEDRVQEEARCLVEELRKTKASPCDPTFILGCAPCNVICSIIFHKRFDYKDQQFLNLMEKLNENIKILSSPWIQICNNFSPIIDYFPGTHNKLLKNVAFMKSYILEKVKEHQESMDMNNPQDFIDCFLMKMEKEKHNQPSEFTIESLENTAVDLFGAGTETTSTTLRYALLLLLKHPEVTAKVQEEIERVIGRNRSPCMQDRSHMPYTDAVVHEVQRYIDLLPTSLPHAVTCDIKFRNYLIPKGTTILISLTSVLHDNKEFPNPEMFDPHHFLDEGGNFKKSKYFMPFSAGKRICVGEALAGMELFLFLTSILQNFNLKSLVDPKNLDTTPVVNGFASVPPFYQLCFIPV
Chain of Paired box protein Pax-8 (Q06710 whole entry): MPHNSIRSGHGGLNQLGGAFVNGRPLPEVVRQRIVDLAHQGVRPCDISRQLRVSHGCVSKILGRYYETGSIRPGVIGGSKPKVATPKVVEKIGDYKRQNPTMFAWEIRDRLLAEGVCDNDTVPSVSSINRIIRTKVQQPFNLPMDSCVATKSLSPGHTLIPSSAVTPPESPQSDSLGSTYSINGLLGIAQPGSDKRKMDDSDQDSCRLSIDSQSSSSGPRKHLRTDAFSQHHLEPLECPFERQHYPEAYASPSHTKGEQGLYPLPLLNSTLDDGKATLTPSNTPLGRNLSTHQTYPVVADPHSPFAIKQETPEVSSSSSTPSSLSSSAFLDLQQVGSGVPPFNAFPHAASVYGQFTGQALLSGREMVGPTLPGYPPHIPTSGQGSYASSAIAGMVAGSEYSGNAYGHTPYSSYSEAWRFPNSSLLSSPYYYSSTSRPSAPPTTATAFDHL

**Q.** Which CC50 [1] does the source give for Cn1cc(NC(=O)CCl)cn1 here?
**A.** > 40 µM (active)

**Q.** With CCCc1cn([C@@H]2C[C@@H]3O[C@H](CO)CC[C@@H]3O[C@@H]2CCc2ccc(-c3cccc(OC)c3)cc2)nn1 as the molecule, how does the AC50 [2] read?
**A.** 2.81 µM (active)

**Q.** With N#C/C(=C\c1ccc[nH]1)C(=O)Nc1ccccc1[N+](=O)[O-] as the molecule, how does the IC50 [3] read?
**A.** 7.3 µM (active)

**Q.** What does the source list for CN(C)c1cccc(OC(=O)NCCCl)c1?
**A.** GI50 (P388/ADR): 31 µM (inactive); GI50 (SN12K1): > 100 µM (inactive)

**Q.** For CC(C)Cc1nc(N2CCN(C(=O)c3ccccc3)CC2)c(C#N)c2c1CCC2, which AC50 (Cytochrome P450 1A2) is on record?
**A.** 25.1 µM (inconclusive)

**Q.** With O=C1NC(=O)N(CCC2=CCCCC2)C(=O)/C1=C(O)/C=C/c1ccc2c(c1)OCO2 as the molecule, how does the EC50 [4] read?
**A.** 17.1 µM (active)

**Q.** What about the EC50 [5] of the same molecule?
**A.** 15 µM (active)

**Q.** What about the AC50 [6] of the same molecule?
**A.** 1.37 µM (active)

**Q.** For COc1ccc(NC(=O)c2cc(S(=O)(=O)N3CCOCC3)cn2C)c(OC)c1, which EC50 [7] is on record?
**A.** > 112 µM (not active)

**Q.** What about the EC50 [8] of the same molecule?
**A.** > 112 µM (not active)

**Q.** For COc1cc(NS(=O)(=O)c2ccc(N/C=C(\C#N)c3nc4cc(Cl)ccc4o3)cc2)nc(OC)n1, which EC50 [4] is on record?
**A.** 12.7 µM (active)

**Q.** And the EC50 [5]?
**A.** 14.7 µM (active)

**Q.** What about the AC50 [6] of the same molecule?
**A.** 2.08 µM (active)

**Q.** With COc1cccc(-c2nc(-c3ccc(C(=O)O)cc3)no2)c1 as the molecule, how does the EC50 [7] read?
**A.** 0.794 µM (active)

**Q.** What about the EC50 [8] of the same molecule?
**A.** 4.03 µM (active)

**Q.** What does the source list for COc1ccc2c(c1)c(=O)oc1cc(OCC(=O)NC3CC3)ccc12?
**A.** EC50 [4]: 14.1 µM (active); EC50 [5]: 37.7 µM (active)

**Q.** With CC1CCN(Cc2c(O)ccc3c(O)c(-c4nc5ccccc5s4)c(=N)oc23)CC1 as the molecule, how does the EC50 [4] read?
**A.** 16.6 µM (active)

**Q.** And the EC50 [5]?
**A.** 16.8 µM (active)

**Q.** For O=C(NC1CCCCC1)C(c1cccs1)N(CCCN1CCOCC1)C(=O)c1ccc(-c2ccccc2)[nH]1 (stereo unspecified), which CC50 [1] is on record?
**A.** > 40 µM (active)

**Q.** With CCCCn1c(CCC(=O)O)ccc1-c1cccs1 as the molecule, how does the EC50 [7] read?
**A.** > 112 µM (not active)

**Q.** What about the EC50 [8] of the same molecule?
**A.** > 112 µM (not active)

**Q.** Which results are given for COc1ccc([N+](=O)[O-])cc1C1NN=C(c2cccc3ccccc23)S1 (stereo unspecified)?
**A.** EC50 [7]: > 112 µM (not active); EC50 [8]: > 112 µM (not active)

**Q.** Which IC50 (cells [9]) does the source give for Cn1c(=O)c(Oc2ccc(Cl)cc2)c(O)c2ccccc21 here?
**A.** 3.7 µM (active)

**Q.** What does the source list for CN(C)c1cccc(C(=O)Nc2nc3ccccc3[nH]2)c1?
**A.** AC50 [10]: > 52 µM (inactive); AC50 [11]: 6.18 µM (active); AC50 [12]: 5.96 µM (active)

**Q.** For CCc1cnc(N2[C@H](C#N)[C@H](c3ccc(C#Cc4ccccc4F)cc3)[C@H]2CO)s1, which AC50 [13] is on record?
**A.** 33.6 µM (active)

**Q.** Which results are given for CC1=C(C(N)=O)C(c2ccccn2)n2nc(SCc3ccccc3Cl)nc2N1 (stereo unspecified)?
**A.** AC50 (Cytochrome P450 1A2): 15.8 µM (inconclusive); AC50 (Cytochrome P450 2C9): 20 µM (inconclusive)

**Q.** Which results are given for CCNc1nc(Oc2ccc(=O)n(-c3ccccc3)n2)nc(N(C)C)n1?
**A.** EC50 [7]: > 112 µM (not active); EC50 [8]: > 112 µM (not active)

**Q.** Which results are given for Cc1cccc(OCC(=O)NCC(=O)N/N=C/c2cccnc2)c1?
**A.** EC50 (cells [14]): > 350 µM (not active); EC50 (cells [15]): > 350 µM (not active)

**Q.** Which AC50 (Paired box protein Pax-8) does the source give for CCCN(C)C[C@H]1OCCCC[C@@H](C)Oc2ccc(NC(=O)Nc3ccc(C(F)(F)F)cc3)cc2C(=O)N([C@H](C)CO)C[C@H]1C here?
**A.** 23.1 µM (active)

**Q.** Which EC50 [16] does the source give for C=CCOc1nc(-c2ccccc2Cl)nc2ccccc12 here?
**A.** 69.1 µM (active)

**Q.** What about the EC50 (cells [14]) of the same molecule?
**A.** > 350 µM (not active)

**Q.** What about the EC50 [17] of the same molecule?
**A.** > 120 µM (not active)

**Q.** What about the EC50 [18] of the same molecule?
**A.** 17.4 µM (active)

**Q.** And the EC50 (cells [15])?
**A.** > 350 µM (not active)

**Q.** What does the source list for Cn1cc(SCC(=O)Nc2nc3ccccc3s2)c2ccccc21?
**A.** EC50 [7]: > 112 µM (not active); EC50 [8]: > 112 µM (not active)

**Q.** For O=C(NCc1ccco1)C1Cc2ccccc2CN1S(=O)(=O)c1ccccc1F (stereo unspecified), which IC50 [3] is on record?
**A.** 5.41 µM (active)

**Q.** For O=C1CC(/C=C/c2ccc(Cl)cc2)=Nc2ccccc2N1, which CC50 [1] is on record?
**A.** 23.8 µM (active)
